In patent US20080051463A1, “ANTHRACENE COMPOUNDS AND THEIR USE FOR TREATING BENIGN AND MALIGNANT TUMOR DISORDERS” (AETERNA ZENTARIS GmbH, priority 2006, published 2008):
≈ marks a conversion by molar mass, not a printed value.

Experiments:
porcine brain tubulin = system: T1, porcine brain tubulin; test: Inhibition of the polymerization of porcine brain tubulin (turbidimetric); type: biochemical; details: porcine brain tubulin with about 15% MAPs, GTP, 37° C.
T1 construct: In addition to tubulin, the protein used comprises about 15% of associated proteins (MAPs)
Experimental: b) In an in vitro test, the compounds 1, 2, 4 and 7 were tested for inhibition of the polymerization of porcine brain tubulin. In this test, tubulin purified by polymerization and depolymerization cycles is used (Shelanski et al. Proc. Natl. Acad. Sci. U.S.A. 1973, 70, 765-768 modified according to Vater et al. Acta Histochem. Suppl. 1986, 33, 123-129), which is polymerized by addition of GTP and heating to 37° C. In addition to tubulin, the protein used comprises about 15% of associated proteins (MAPs). The measurement values were determined turbidimetrically according to Gaskin et al. J. Mol. Biol. 89 (1974) 737-755.
Table 3 states the EC50 value of the polymerization inhibition.

[1] = system: RKOp27 human colon carcinoma cells, p27kiP1 induced; test: Proliferation test, RKOp27 cell system with induced p27kiP1 expression; type: cell-based; details: RKOp27 with induced expression of p27kiP1, read-out: RKOP27ind EC50
Excerpt: (§1) The antiproliferative activity of the compounds 1, 2, 4, 6, 7, 9, 10, 11, 12 and 13 according to the invention was investigated in a proliferation test performed on established tumor cell lines (D. A. Scuderio et al. Cancer Res. 1988, 48: 4827-4833).
(§2) The test used determines the cellular dehydrogenase activity and makes it possible to determine cell viability and determine cell number indirectly.
(§3) The cell lines used are the human cervical carcinoma cell line KB/HeLa (ATCC CCL17), the ovarian adenocarcinoma cell line SKOV-3 (ATCC HTB77), the human glioblastoma cell line SF-268 (NCI-503138) and the lung carcinoma cell line NCI-H460 (NCI-503473). In addition, an RKOp27 cell system was used for investigating the cell cycle-specific effect of the substance (M. Schmidt et al. Oncogene 2000, 19(20): 2423-9).
(§4) RKO is a human colon carcinoma line in which expression of the cell cycle inhibitor p27^kiP1 can be induced using the ecdysone expression system and lead to cell cycle arrest specifically in […].
(§5) By contrast, cell cycle-specific substances, such as, for example, tubulin inhibitors, are only cytotoxic when cells are not arrested and the cell cycle is passed through.

Eg51-406 = target: T2, Eg51-406 (Homo sapiens, UniProt P52732); test: Inhibition of kinesin Eg5 activity, recombinant Eg51-406; type: biochemical; details: recombinant Eg51-406 (Table 5)
T2 construct: read as Eg5 residues 1-406
T2 sequence (P52732 1-1056): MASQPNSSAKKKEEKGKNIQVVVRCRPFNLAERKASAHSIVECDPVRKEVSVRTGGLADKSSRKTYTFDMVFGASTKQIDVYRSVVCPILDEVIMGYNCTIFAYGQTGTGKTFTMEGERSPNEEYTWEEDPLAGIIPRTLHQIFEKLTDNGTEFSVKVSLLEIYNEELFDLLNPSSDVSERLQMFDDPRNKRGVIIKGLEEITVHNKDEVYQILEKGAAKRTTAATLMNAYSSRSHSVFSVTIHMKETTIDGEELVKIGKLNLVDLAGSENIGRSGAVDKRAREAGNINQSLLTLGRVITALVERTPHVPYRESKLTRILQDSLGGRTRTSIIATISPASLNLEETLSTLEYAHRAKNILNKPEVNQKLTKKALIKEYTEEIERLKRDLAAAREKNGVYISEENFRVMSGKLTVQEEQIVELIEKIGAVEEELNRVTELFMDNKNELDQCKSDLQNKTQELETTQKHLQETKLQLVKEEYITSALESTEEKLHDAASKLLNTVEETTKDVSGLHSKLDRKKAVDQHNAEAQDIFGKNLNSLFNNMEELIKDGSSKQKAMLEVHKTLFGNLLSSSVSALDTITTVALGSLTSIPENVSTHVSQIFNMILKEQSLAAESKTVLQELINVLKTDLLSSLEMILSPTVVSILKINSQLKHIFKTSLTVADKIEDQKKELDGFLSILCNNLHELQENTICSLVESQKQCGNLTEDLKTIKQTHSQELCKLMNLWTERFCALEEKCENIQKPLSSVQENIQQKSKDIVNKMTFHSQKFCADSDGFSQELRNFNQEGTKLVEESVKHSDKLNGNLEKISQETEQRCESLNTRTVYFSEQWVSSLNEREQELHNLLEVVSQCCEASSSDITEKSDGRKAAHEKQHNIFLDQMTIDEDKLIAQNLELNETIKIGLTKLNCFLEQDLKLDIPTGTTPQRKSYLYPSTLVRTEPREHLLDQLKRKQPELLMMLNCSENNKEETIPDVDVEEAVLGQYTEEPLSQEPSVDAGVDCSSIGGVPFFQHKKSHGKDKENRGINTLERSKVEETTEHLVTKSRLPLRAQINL
Excerpt: In an in vitro test, compound 1 was examined for inhibition of Eg5 activity [Kodama, T. et al. J. Biochem. 99: 1465-1472 (1986)].
Here, the recombinant kinesins Eg513-437 (Table 3) and Eg51-406 (Table 4) were used.
Tables 4 and 5 state the EC50 values of Eg5 inhibition for the compound 1 according to the invention.

[2] = system: lung carcinoma cell line NCI-H460; test: Proliferation test (cellular dehydrogenase activity), NCI-H460; type: cell-based; details: Homo sapiens
Excerpt: as §1, §2, §3

[3] = system: ovarian adenocarcinoma cell line SKOV-3; test: Proliferation test (cellular dehydrogenase activity), SK-OV-3; type: cell-based; details: Homo sapiens
Excerpt: as §1, §2, §3

[4] = system: human cervical carcinoma cell line KB/HeLa; test: Proliferation test (cellular dehydrogenase activity), KB/HeLa; type: cell-based
Excerpt: as §1, §2, §3

[5] = system: RKOp27 human colon carcinoma cells; test: Proliferation test, RKOp27 cell system without p27kiP1 expression; type: cell-based; details: RKOp27 without expression of p27kiP1
Excerpt: as §1, §2, §3, §4, §5

EC50 of the polymerization inhibition (porcine brain tubulin): 3.0 µg/mL
EC50 [1]: > 3.16 µg/mL
EC50 (Eg51-406): 37.1 µM
EC50 [2]: 0.146 µg/mL (≈ 0.426 µM)
EC50 [3]: 0.053 µg/mL (≈ 0.155 µM)
EC50 [4]: 0.091 µg/mL (≈ 0.266 µM)
EC50 [5]: 0.083 µg/mL (≈ 0.242 µM)
Structure (SMILES): O=C(C=C1c2ccccc2C(=O)c2ccccc21)c1ccc(O)c(O)c1 [Compound 1, 10-[2-(3,4-dihydroxy-phenyl)-2-oxo-ethylidene]-10H-anthracen-9-one]
